Data on one compound can be found in patent US9408856B2, “Topical steroidal formulations” (Temple University—Of The Commonwealth System of Higher …, priority 2008, dated 2016).

Values joined by “and” are separate entries in the source; they are usually repeats but may differ in a detail not shown here. Identical values can stand only once.

Test [1] deals with TPA-stimulated epidermal DNA synthesis in mouse epidermis. As to the kind of experiment: TPA-induced epidermal DNA synthesis in mouse epidermis, transdermal fluasterone. As to conditions: TPA 2 μg (back) after carbitol vehicle only; 20 h; single mice and group mean. It counts as in vivo, CD-1 mice. On the procedure:
In dose-response experiments the anti-hyperplastic efficacy of fluasterone in TPA-treated mouse epidermis to determine bioavailability following different routes of administration was measured. Mice were treated with a single dose of fluasterone (either orally, subcutaneously, or transdermally) followed by a single application of TPA to the shaved back one hour latter. In case of transdermal administration, fluasterone is applied in a topical formulation to the shaved abdomen to allow for systemic absorption to the back of the animal. Twenty hours after TPA application, the mice are injected with 60 μCi of [3H] thymidine, sacrificed 20 minutes later, and a 2×2 cm2 of skin from the shaved back is excised and processed for the determination of the amount of [3H] thymidine incorporated per unit of epidermal DNA. (Hennings et. al., Cancer Res. 28:543-552, 1968).
Female CD-1 mice, 40-43 days old, were obtained from Charles River Laboratories, Kingston, N.Y. The mice were housed two per cage in plastic shoebox cages on Absorbdri bedding with 12 hours of alternating light and dark in the Central Animal Facility. The mice had ad libitum access to Purina 5015 chow and acidified tap water (pH S 2.6). The mice were allowed to acclimate to the facility for approximately two weeks prior to use in an experiment. […]
The mice were weighed, marked with magic marker on the tail, and shaved on the back and the abdomen one day prior to treatment. Only those mice showing no hair regrowth were used in the experiment. Fluasterone was applied to the shaved abdomen one hour before TPA was applied to the shaved back. The mice were anesthetized and on their backs prior to topical application of TPA. […]
The mice were anesthetized with Isoflurane, and then were given an intramuscular injection of 0.1 mL solution of ketamine (50 mg/kg), xylazine (10 mg/kg) and atropine (0.1 mg/kg). Approximately 10 minutes after the i.m. injection (after the mice could not turn over when placed on their backs), the mice were treated with 5 μL of a 12.5 mg/mL fluasterone/carbitol solution to give a dose of 2.5 mg/kg. The mice were anesthetized and on their backs for approximately 30 minutes after application of fluasterone/carbitol solution. One hour after the application of fluasterone/carbitol solution, 2 μg of TPA dissolved in. 0.2 mL of acetone was applied to the shaved area on the back of each mouse. […]
The mice were anesthetized with Isoflurane, and then were given an intramuscular injection of 0.1 mL solution of ketamine (50 mg/kg), xylazine (10 mg/kg) and atropine (0.1 mg/kg). Approximately 10 minutes after the i.m. injection (after the mice could not turn over when placed on their backs), the mice were treated with 2.5 μl, of a 12.5 mg/mL fluasterone/carbitol solution to give a dose of 1.25 mg/kg. The mice were anesthetized and on their backs for approximately 30 minutes after application of fluasterone/carbitol solution. One hour after the application of fluasterone/carbitol solution, 2 μg of TPA dissolved in 0.2 mL of acetone was applied to the shaved area on the back of each mouse.
The mice were anesthetized with Isoflurane, and then were given an intramuscular injection of 0.1 mL solution of ketamine (50 mg/kg), xylazine (10 mg/kg) and atropine (0.1 mg/kg). Approximately 10 minutes after the i.m. injection (after the mice could not turn over when placed on their backs), the mice were treated with 10 μL of a 12.5 mg/mL fluasterone/Cremophor EL solution to give a dose of 5 mg/kg. The mice were anesthetized and on their backs for approximately 30 minutes after application of fluasterone/Cremophor EL solution. One hour after the application of fluasterone/Cremophor EL solution, 2 μg of TPA dissolved in 0.2 mL of acetone was applied to the shaved area on the back of each mouse.
The mice were anesthetized with Isoflurane, and then were given an intramuscular injection of 0.1 mL solution of ketamine (50 mg/kg), xylazine (10 mg/kg) and atropine (0.1 mg/kg). […]

For test [2] the test system is unchanged. Described as above. It counts as in vivo, CD-1 mice. The settings on record: 20 h.
Where [3] appears, read: TPA 2 μg (back) after Cremophor EL vehicle only, single mice.
The mark [4] stands for this setting: TPA 2 μg (back) after Cremophor EL:ethanol (50:50 v/v) vehicle only, single mice.
Where [5] appears, read: TPA 2 μg (back) after Tween 80:ethanol (50:50 v/v) vehicle only, single mice.
[6] abbreviates: TPA 2 μg (back) after carbitol vehicle only, single mice.
[7] abbreviates: TPA 2 μg (back) after ethanol:limonene:isopropyl myristate (81:15:4) vehicle only, single mice.
Setting [8] is: TPA 2 μg (back) after ethanol:limonene:isopropyl myristate (81:15:4) vehicle only, single mice and group mean.
Where [9] appears, read: TPA 2 μg (back) after ethanol:water:Tween 80 (76:19:5) vehicle only, single mice.
The mark [10] stands for this setting: TPA 2 μg (back) after ethanol:water:Tween 80 (76:19:5) vehicle only, single mice and group mean.

Turning to `CCCCCCCCCCCCCC(=O)O[C@@H]1[C@@H](C)[C@@]2(O)[C@@H](C=C(CO)C[C@]3(O)C(=O)C(C)=C[C@@H]23)[C@@H]2C(C)(C)[C@]12OC(C)=O` [TPA, 12-O-tetradecanoylphorbol-13-acetate, reference compound], the “cpm/μg DNA” value is 331.5 cpm/μg DNA and 353.6 cpm/μg DNA and 342.6 ± 15.6 cpm/μg DNA in test [1]; 586.8 cpm/μg DNA and 455.6 cpm/μg DNA and 521.2 ± 92.8 cpm/μg DNA in test [2] (TPA 2 μg (back) after Cremophor EL vehicle only, single mice and group mean); 1,482.6 cpm/μg DNA and 1,521.2 cpm/μg DNA in test [2] (TPA 2 μg (back) after Cremophor EL:ethanol (50:50 v/v) vehicle only, single mice and group mean); 244.3 cpm/μg DNA and 167.4 cpm/μg DNA in test [2] (TPA 2 μg (back) after Tween 80:ethanol (50:50 v/v) vehicle only, single mice and group mean); 277.4 cpm/μg DNA and 322.0 cpm/μg DNA in test [2] (setting [8]); 208.4 cpm/μg DNA and 186.3 cpm/μg DNA in test [2] (setting [10]). Moreover, the corrected cpm in test [2] (setting [3]) is 16,842 cpm and 13,849 cpm; in test [2] (setting [4]) it was 54,709 cpm and 54,308 cpm; in test [2] (setting [5]), 4,276 cpm and 3,114 cpm; in test [2] (setting [6]), 6,729 cpm and 7,496 cpm; in test [2] (setting [7]), 8,545 cpm and 11,109 cpm; in test [2] (setting [9]), 7,274 cpm and 6,557 cpm. Further, the cpm in test [2] (setting [3]) is 16,877 cpm and 13,884 cpm; in test [2] (setting [4]) it was 54,744 cpm and 54,343 cpm; in test [2] (setting [5]), 4,301 cpm and 3,139 cpm; in test [2] (setting [6]) it was 6,764 cpm and 7,531 cpm; in test [2] (setting [7]), 8,574 cpm and 11,138 cpm; in test [2] (setting [9]), 7,303 cpm and 6,586 cpm. Moreover, the “μg DNA/0.2 mL” value is 28.7 μg DNA/0.2 mL and 30.4 μg DNA/0.2 mL in test [2] (setting [3]); 20.3 μg DNA/0.2 mL and 21.2 μg DNA/0.2 mL in test [2] (setting [6]); 30.8 μg DNA/0.2 mL and 34.5 μg DNA/0.2 mL in test [2] (setting [8]); 34.9 μg DNA/0.2 mL and 35.2 μg DNA/0.2 mL in test [2] (setting [10]). In addition, the “μg DNA/0.2” value in test [2] (setting [4]) is 36.9 μg DNA/0.2 and 35.7 μg DNA/0.2; in test [2] (setting [5]) it was 17.5 μg DNA/0.2 and 18.6 μg DNA/0.2.
